What follows are compounds tested on MDA-MB-436 (assay: normalised viability (% of control), CellTiter-Blue; higher = more viable cells (about 100 = DMSO control)). Settings: 1000 nM; incubation time: 72 h.
Procedure, shortened: (§1)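 Vehicle (100) and a positive kill control (0) anchored the normalisation of each plate, and Z'-factor was used for quality control. Breast cancer cell lines in 20 µl suspension were incubated 72 h over compound in 5 µl medium in 384-well plates, followed by CellTiter-Blue at 560/590 nm. The value is normalised viability at a single listed concentration of the series.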

Question: `COC(=O)c1ccc2c(c1)NC(=O)/C2=C(\Nc1ccc(N(C)C(=O)CN2CCN(C)CC2)cc1)c1ccccc1` [BIBF 1120] was tested. Which normalised viability did it give?
Answer: 122%

Question: Which normalised viability does the source give for `Nc1cc(C(F)(F)F)c(-c2cc(N3CCOCC3)nc(N3CCOCC3)n2)cn1` [BKM-120] here?
Answer: 93.8%

Question: `O=C(/C=C/c1cccc(S(=O)(=O)Nc2ccccc2)c1)NO` [Belinostat] was tested. Which normalised viability did it give?
Answer: 38.8%

Question: Which normalised viability does the source give for `C=C1C[C@@H]2[C@H](CC[C@]3(C)C(=O)CC[C@@H]23)[C@@]2(C)C=CC(=O)C=C12` [Exemestane] here?
Answer: 87.4%

Same assay, conditions: 4000 nM; incubation time: 72 h

Question: With `O=P1(N(CCCl)CCCl)NCCCO1` (stereo unspecified) [Cyclophosphamide] as the compound, how does the normalised viability read?
Answer: 83.7%

Same assay, conditions: 10000 nM; incubation time: 72 h

Question: For `Cc1cc(Nc2cc(CN3CCOCC3)c3nc(C)c(Cc4ccc(Cl)cc4F)n3n2)n[nH]1`, which normalised viability is on record?
Answer: 36.8%

Question: `N#Cc1ccc(COC[C@H]2O[C@@H](n3c(NCc4ccc(Cl)c(Cl)c4)nc4c(N)ncnc43)[C@H](O)[C@@H]2O)cc1` was tested. Which normalised viability did it give?
Answer: 50.9%

Question: For `COc1cc(OC2CCN(C)CC2)ccc1Nc1ncc2c(n1)n(C1CCCC1)c(=O)n2C` [AZ 3146], which normalised viability is on record?
Answer: 85.6%

Question: For `CN(C)c1nc(N(C)C)nc(N(C)C)n1` [Altretamine], which normalised viability is on record?
Answer: 85.5%

Question: With `COC(=O)c1ccc2c(c1)NC(=O)/C2=C(\Nc1ccc(N(C)C(=O)CN2CCN(C)CC2)cc1)c1ccccc1` [BIBF 1120] as the compound, how does the normalised viability read?
Answer: 43.8%

Question: For `Nc1cc(C(F)(F)F)c(-c2cc(N3CCOCC3)nc(N3CCOCC3)n2)cn1` [BKM-120], which normalised viability is on record?
Answer: 16.5%

Question: `O=C(/C=C/c1cccc(S(=O)(=O)Nc2ccccc2)c1)NO` [Belinostat] was tested. Which normalised viability did it give?
Answer: 17.4%

Question: Which normalised viability does the source give for `C=C1C[C@@H]2[C@H](CC[C@]3(C)C(=O)CC[C@@H]23)[C@@]2(C)C=CC(=O)C=C12` [Exemestane] here?
Answer: 96.2%

Same assay, conditions: 40000 nM; incubation time: 72 h

Question: How did the normalised viability turn out when `O=P1(N(CCCl)CCCl)NCCCO1` (stereo unspecified) [Cyclophosphamide] was run?
Answer: 83.9%

These compounds were tested on MDA-MB-453 in the same assay as above. Settings: 3 nM; incubation time: 72 h.
Procedure, shortened: as §1

Question: Which normalised viability does the source give for `Cc1cc(Nc2cc(CN3CCOCC3)c3nc(C)c(Cc4ccc(Cl)cc4F)n3n2)n[nH]1` here?
Answer: 90.4%

Question: `N#Cc1ccc(COC[C@H]2O[C@@H](n3c(NCc4ccc(Cl)c(Cl)c4)nc4c(N)ncnc43)[C@H](O)[C@@H]2O)cc1` was tested. Which normalised viability did it give?
Answer: 124%

Question: For `COc1cc(OC2CCN(C)CC2)ccc1Nc1ncc2c(n1)n(C1CCCC1)c(=O)n2C` [AZ 3146], which normalised viability is on record?
Answer: 96%

Question: For `CN(C)c1nc(N(C)C)nc(N(C)C)n1` [Altretamine], which normalised viability is on record?
Answer: 119%

Question: Which normalised viability does the source give for `COC(=O)c1ccc2c(c1)NC(=O)/C2=C(\Nc1ccc(N(C)C(=O)CN2CCN(C)CC2)cc1)c1ccccc1` [BIBF 1120] here?
Answer: 112%

Question: For `Nc1cc(C(F)(F)F)c(-c2cc(N3CCOCC3)nc(N3CCOCC3)n2)cn1` [BKM-120], which normalised viability is on record?
Answer: 111%

Question: For `O=C(/C=C/c1cccc(S(=O)(=O)Nc2ccccc2)c1)NO` [Belinostat], which normalised viability is on record?
Answer: 90.7%

Question: For `C=C1C[C@@H]2[C@H](CC[C@]3(C)C(=O)CC[C@@H]23)[C@@]2(C)C=CC(=O)C=C12` [Exemestane], which normalised viability is on record?
Answer: 103%

Same assay, conditions: 12 nM; incubation time: 72 h

Question: `O=P1(N(CCCl)CCCl)NCCCO1` (stereo unspecified) [Cyclophosphamide] was tested. Which normalised viability did it give?
Answer: 105%

Same assay, conditions: 30 nM; incubation time: 72 h

Question: `Cc1cc(Nc2cc(CN3CCOCC3)c3nc(C)c(Cc4ccc(Cl)cc4F)n3n2)n[nH]1` was tested. Which normalised viability did it give?
Answer: 101%

Question: Which normalised viability does the source give for `N#Cc1ccc(COC[C@H]2O[C@@H](n3c(NCc4ccc(Cl)c(Cl)c4)nc4c(N)ncnc43)[C@H](O)[C@@H]2O)cc1` here?
Answer: 95.7%

Question: For `COc1cc(OC2CCN(C)CC2)ccc1Nc1ncc2c(n1)n(C1CCCC1)c(=O)n2C` [AZ 3146], which normalised viability is on record?
Answer: 97.7%

Question: With `CN(C)c1nc(N(C)C)nc(N(C)C)n1` [Altretamine] as the compound, how does the normalised viability read?
Answer: 99.5%

Question: How did the normalised viability turn out when `COC(=O)c1ccc2c(c1)NC(=O)/C2=C(\Nc1ccc(N(C)C(=O)CN2CCN(C)CC2)cc1)c1ccccc1` [BIBF 1120] was run?
Answer: 101%

Question: Which normalised viability does the source give for `Nc1cc(C(F)(F)F)c(-c2cc(N3CCOCC3)nc(N3CCOCC3)n2)cn1` [BKM-120] here?
Answer: 114%

Question: Which normalised viability does the source give for `O=C(/C=C/c1cccc(S(=O)(=O)Nc2ccccc2)c1)NO` [Belinostat] here?
Answer: 82.5%

Question: `C=C1C[C@@H]2[C@H](CC[C@]3(C)C(=O)CC[C@@H]23)[C@@]2(C)C=CC(=O)C=C12` [Exemestane] was tested. Which normalised viability did it give?
Answer: 87.3%

Same assay, conditions: 100 nM; incubation time: 72 h

Question: For `Cc1cc(Nc2cc(CN3CCOCC3)c3nc(C)c(Cc4ccc(Cl)cc4F)n3n2)n[nH]1`, which normalised viability is on record?
Answer: 82.8%

Question: How did the normalised viability turn out when `N#Cc1ccc(COC[C@H]2O[C@@H](n3c(NCc4ccc(Cl)c(Cl)c4)nc4c(N)ncnc43)[C@H](O)[C@@H]2O)cc1` was run?
Answer: 91.4%

Question: `COc1cc(OC2CCN(C)CC2)ccc1Nc1ncc2c(n1)n(C1CCCC1)c(=O)n2C` [AZ 3146] was tested. Which normalised viability did it give?
Answer: 85.3%

Question: Which normalised viability does the source give for `CN(C)c1nc(N(C)C)nc(N(C)C)n1` [Altretamine] here?
Answer: 97.4%

Question: For `COC(=O)c1ccc2c(c1)NC(=O)/C2=C(\Nc1ccc(N(C)C(=O)CN2CCN(C)CC2)cc1)c1ccccc1` [BIBF 1120], which normalised viability is on record?
Answer: 104%

Question: With `Nc1cc(C(F)(F)F)c(-c2cc(N3CCOCC3)nc(N3CCOCC3)n2)cn1` [BKM-120] as the compound, how does the normalised viability read?
Answer: 96.7%

Question: For `O=C(/C=C/c1cccc(S(=O)(=O)Nc2ccccc2)c1)NO` [Belinostat], which normalised viability is on record?
Answer: 64.6%

Question: `C=C1C[C@@H]2[C@H](CC[C@]3(C)C(=O)CC[C@@H]23)[C@@]2(C)C=CC(=O)C=C12` [Exemestane] was tested. Which normalised viability did it give?
Answer: 97.8%

Same assay, conditions: 120 nM; incubation time: 72 h

Question: `O=P1(N(CCCl)CCCl)NCCCO1` (stereo unspecified) [Cyclophosphamide] was tested. Which normalised viability did it give?
Answer: 105%

Same assay, conditions: 400 nM; incubation time: 72 h

Question: `O=P1(N(CCCl)CCCl)NCCCO1` (stereo unspecified) [Cyclophosphamide] was tested. Which normalised viability did it give?
Answer: 111%

Each compound was assayed on MDA-MB-468 in the same assay as above. Settings: 10 nM; incubation time: 72 h.
Procedure, shortened: as §1

Question: How did the normalised viability turn out when `Cc1cc(Nc2cc(CN3CCOCC3)c3nc(C)c(Cc4ccc(Cl)cc4F)n3n2)n[nH]1` was run?
Answer: 103%

Question: For `N#Cc1ccc(COC[C@H]2O[C@@H](n3c(NCc4ccc(Cl)c(Cl)c4)nc4c(N)ncnc43)[C@H](O)[C@@H]2O)cc1`, which normalised viability is on record?
Answer: 108%

Question: With `COc1cc(OC2CCN(C)CC2)ccc1Nc1ncc2c(n1)n(C1CCCC1)c(=O)n2C` [AZ 3146] as the compound, how does the normalised viability read?
Answer: 109%

Question: How did the normalised viability turn out when `CN(C)c1nc(N(C)C)nc(N(C)C)n1` [Altretamine] was run?
Answer: 94.5%

Question: `COC(=O)c1ccc2c(c1)NC(=O)/C2=C(\Nc1ccc(N(C)C(=O)CN2CCN(C)CC2)cc1)c1ccccc1` [BIBF 1120] was tested. Which normalised viability did it give?
Answer: 108%

Question: `Nc1cc(C(F)(F)F)c(-c2cc(N3CCOCC3)nc(N3CCOCC3)n2)cn1` [BKM-120] was tested. Which normalised viability did it give?
Answer: 97.7%

Question: With `O=C(/C=C/c1cccc(S(=O)(=O)Nc2ccccc2)c1)NO` [Belinostat] as the compound, how does the normalised viability read?
Answer: 112%

Question: How did the normalised viability turn out when `C=C1C[C@@H]2[C@H](CC[C@]3(C)C(=O)CC[C@@H]23)[C@@]2(C)C=CC(=O)C=C12` [Exemestane] was run?
Answer: 109%

Same assay, conditions: 40 nM; incubation time: 72 h

Question: `O=P1(N(CCCl)CCCl)NCCCO1` (stereo unspecified) [Cyclophosphamide] was tested. Which normalised viability did it give?
Answer: 102%

Same assay, conditions: 1000 nM; incubation time: 72 h

Question: For `Cc1cc(Nc2cc(CN3CCOCC3)c3nc(C)c(Cc4ccc(Cl)cc4F)n3n2)n[nH]1`, which normalised viability is on record?
Answer: 61.4%

Question: Which normalised viability does the source give for `N#Cc1ccc(COC[C@H]2O[C@@H](n3c(NCc4ccc(Cl)c(Cl)c4)nc4c(N)ncnc43)[C@H](O)[C@@H]2O)cc1` here?
Answer: 89.7%

Question: Which normalised viability does the source give for `COc1cc(OC2CCN(C)CC2)ccc1Nc1ncc2c(n1)n(C1CCCC1)c(=O)n2C` [AZ 3146] here?
Answer: 103%

Question: Which normalised viability does the source give for `CN(C)c1nc(N(C)C)nc(N(C)C)n1` [Altretamine] here?
Answer: 104%

Question: For `COC(=O)c1ccc2c(c1)NC(=O)/C2=C(\Nc1ccc(N(C)C(=O)CN2CCN(C)CC2)cc1)c1ccccc1` [BIBF 1120], which normalised viability is on record?
Answer: 112%

Question: How did the normalised viability turn out when `Nc1cc(C(F)(F)F)c(-c2cc(N3CCOCC3)nc(N3CCOCC3)n2)cn1` [BKM-120] was run?
Answer: 78.7%

Question: Which normalised viability does the source give for `O=C(/C=C/c1cccc(S(=O)(=O)Nc2ccccc2)c1)NO` [Belinostat] here?
Answer: 66.9%

Question: With `C=C1C[C@@H]2[C@H](CC[C@]3(C)C(=O)CC[C@@H]23)[C@@]2(C)C=CC(=O)C=C12` [Exemestane] as the compound, how does the normalised viability read?
Answer: 112%

Same assay, conditions: 4000 nM; incubation time: 72 h

Question: For `O=P1(N(CCCl)CCCl)NCCCO1` (stereo unspecified) [Cyclophosphamide], which normalised viability is on record?
Answer: 100%

Same assay, conditions: 10000 nM; incubation time: 72 h

Question: For `Cc1cc(Nc2cc(CN3CCOCC3)c3nc(C)c(Cc4ccc(Cl)cc4F)n3n2)n[nH]1`, which normalised viability is on record?
Answer: 7.11%

Question: How did the normalised viability turn out when `N#Cc1ccc(COC[C@H]2O[C@@H](n3c(NCc4ccc(Cl)c(Cl)c4)nc4c(N)ncnc43)[C@H](O)[C@@H]2O)cc1` was run?
Answer: 68.7%

Source: the supplement of paper PMC4862054
